Measurements taken from patent US20060183794A1, “Drug composition containing nf-kb inhibitor” (priority 2002, published 2006).

Legend:
p65 subunit of NF-κB = target: T1, p65 subunit of NF-κB (Homo sapiens, UniProt Q04206); test: Confocal microscopy of p65 distribution in ATL cell lines; assay type: cell-based; conditions: MT-1 and TL-Om1; 10 μg/ml DHM2EQ, 24 hours
T1 construct: endogenous in cells; host or cells: ATL cell lines MT-1 and TL-Om1
Procedure: It is thought that DHM2EQ inhibits nuclear translocation of the p65 subunit of NF-κB. The ATL cell lines (MT-1 and TL-Om1) were treated with 10 μg/ml DHM2EQ for 24 hours and distribution of p65 was examined with a confocal microscope, using fluorescence-labeled anti-p65 antibody. The cell lines not treated with DHM2EQ were also examined in the same manner. In the figure, “−” and “+” indicate the results of DHM2EQ untreatment and DHM2EQ treatment, respectively.

[1] = tested on: MM cells (MM1, MM2, and MM3) of multiple myeloma patients; test: MTT assay, MM cells from patients' bone marrow; assay type: cell-based, human; conditions: 10 μg/ml, 48 hours
Procedure: Next, to investigate the inhibitory effect of DHMEQ on proliferation of cells of multiple myeloma (MM) patients, MM cells (MM1, MM2, and MM3) were isolated from patients' bone marrow, incubated for 48 hours at the DHMEQ concentration of 10 μg/ml, and the proliferation-inhibitory effect was examined by the MTT assay. Peripheral blood mononuclear cells (PBMC) isolated from normal peripheral blood were used as control cells. In the figure, the vertical axis indicates the relative values of the MTT values of treated cells versus untreated cells, i.e., (DHMEQ-treated/untreated)×100%.

[2] = tested on: ATL cell lines (MT-1 and TL-Om1); test: Hoechst staining apoptosis assay, ATL cell lines; assay type: cell-based, human; conditions: 10 μg/ml, 72 hours
Procedure: DHM2EQ was added to the ATL cell lines (MT-1 and TL-Om1) and a control cell line (K562) at a final concentration of 10 μg/ml, followed by incubation for 72 hours. Subsequently, apoptosis was examined by observing nuclear […] or fragmentation on Hoechst staining with a fluorescence microscope. Cells to which the solvent DMSO had been added in equal volume were also examined in the same manner.

[3] = tested on: MM cell lines, KMM1, RPMI8226, and U266; test: MTT assay, proliferation of multiple myeloma cell lines; assay type: cell-based
Procedure: (§1) Cells from the ATL cell lines (MT-1 and TL-Om1) and a control cell line (K562) were plated in 96-well plates at 1×10^5 cells/well and DHM2EQ was added at the desired final concentrations (2, 5, and 10 μg/ml). Cells to which the solvent DMSO had been added in equal volume (0 μg/ml) were used as […] incubation for 72 hours, cell viability was judged by the MTT assay. Relative MTT values were obtained as the ratio of the MMT values of DHM2EQ-treated cells to those of DHM2EQ-untreated cells, i.e., (MTT values of DHM2EQ-treated cells/MTT values of DHM2EQ-untreated cells)×100(%).
(§2) DHM2EQ was added to the ATL cell lines (MT-1 and TL-Om1) and a control cell line (K562) at a final concentration of 10 μg/ml and the cells were incubated for 12, 24, 48, and 72 hours. The proliferation-inhibitory effect was examined by the MTT assay. Cells to which the solvent DMSO had been added in equal volume were used as controls. Relative MTT values were obtained in the same manner as the aforementioned (1).
To investigate the influence of the DHMEQ concentrations on inhibition of cell proliferation, the cell viability was judged by using the MM cell lines, KMM1, RPMI8226, and U266 in the same method as in Example 5-(1). […]

[4] = tested on: human pancreatic cancer cell line PK-2; test: Human pancreatic cancer PK-2 subcutaneous tumor in SCID mice; assay type: in vivo; conditions: PK-2 s.c., 12 mg/kg i.p.
Procedure: The in vivo suppressive effect of DHMEQ on proliferation of tumor cells in human pancreatic cancer. The human pancreatic cancer cell line PK-2 (2×10^6 cells) was inoculated subcutaneously in the right back of SCID mice (n=7) and then 12 mg/kg DHMEQ was injected intraperitoneally (i.p.) at a dose of 200 μl every other day for five days. Subsequently, the major axis and minor axis of the tumors were measured every seven days. The tumor volume was calculated as follows: (major axis)×(minor axis)^2×0.5.

[5] = tested on: K562 (myelocytic leukemia cell line); test: MTT assay, proliferation of control cell line K562; assay type: cell-based
Procedure: as §1, §2
Time-course analysis and concentration dependence analysis of the inhibitory effect of DHM2EQ on proliferation of Hodgkin's lymphoma cells were performed in the same manner as in Example 2. As Hodgkin's lymphoma cells, the Hodgkin's lymphoma cell lines KMH-2 and L-540 were used.

NF-κB = NF-κB (Homo sapiens, UniProt P19838+Q04206); test: Reporter gene (luciferase) assay of NF-κB transcriptional activity in ATL cell lines; assay type: cell-based; design: endogenous in cells; conditions: MT-1 and TL-Om1; 5 μg/ml DHM2EQ; remaining activity vs untreated
Procedure: To examine the transcriptional activity of NF-κB, by using a luciferase construct (6 kB-Luc plasmid), containing six tandem copies of the NF-κB binding sequence, driven with an artificial promoter as a reporter, this plasmid DNA was transiently introduced into the ATL cell lines (MT-1 and TL-Om1) as well as into the control cell line (K562) (transfected on a scale of 2×10^5 cells/transfection using DMRIE-C (Invitrogen)). After 12 hours, treatment with 5 μg/ml DHM2EQ was started. Cells were recovered after 48 hours and the transcriptional activity of NF-κB was evaluated as the enzyme activity of the luciferase. The cell lines not treated with DHM2EQ were also evaluated in the same manner. All experiments were performed three times to obtain average values as well as standard deviations.

Sequence of NF-κB (Q04206 whole entry): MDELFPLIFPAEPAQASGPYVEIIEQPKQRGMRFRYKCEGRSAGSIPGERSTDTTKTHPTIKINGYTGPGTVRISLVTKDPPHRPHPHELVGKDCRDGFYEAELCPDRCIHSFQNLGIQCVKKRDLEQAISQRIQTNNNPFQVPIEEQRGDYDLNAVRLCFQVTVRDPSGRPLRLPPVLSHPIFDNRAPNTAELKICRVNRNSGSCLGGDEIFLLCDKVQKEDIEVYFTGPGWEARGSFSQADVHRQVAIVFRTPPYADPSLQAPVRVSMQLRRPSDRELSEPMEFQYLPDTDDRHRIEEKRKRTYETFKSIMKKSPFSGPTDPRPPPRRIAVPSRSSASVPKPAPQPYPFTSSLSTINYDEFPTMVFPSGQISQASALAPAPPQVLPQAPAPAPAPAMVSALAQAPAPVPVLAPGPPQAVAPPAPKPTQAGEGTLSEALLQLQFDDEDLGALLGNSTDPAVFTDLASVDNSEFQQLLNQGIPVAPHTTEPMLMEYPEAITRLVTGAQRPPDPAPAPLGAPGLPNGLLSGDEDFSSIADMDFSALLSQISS
Sequence of NF-κB (P19838 1-433 limits assumed): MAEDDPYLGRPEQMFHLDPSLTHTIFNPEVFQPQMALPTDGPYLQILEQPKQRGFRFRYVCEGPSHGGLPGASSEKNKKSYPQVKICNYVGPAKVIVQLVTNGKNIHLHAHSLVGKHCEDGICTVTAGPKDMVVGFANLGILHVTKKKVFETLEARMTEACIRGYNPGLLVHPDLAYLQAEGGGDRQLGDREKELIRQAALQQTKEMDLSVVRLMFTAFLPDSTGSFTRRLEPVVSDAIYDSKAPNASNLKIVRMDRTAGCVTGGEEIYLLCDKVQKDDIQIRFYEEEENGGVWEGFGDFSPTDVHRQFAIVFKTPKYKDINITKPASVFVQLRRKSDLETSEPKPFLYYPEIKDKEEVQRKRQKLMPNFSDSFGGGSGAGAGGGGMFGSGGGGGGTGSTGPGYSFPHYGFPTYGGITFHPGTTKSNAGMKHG
T1 sequence (Q04206 whole entry): as the sequence (Q04206 whole entry) above

## O=C(NC1=CC(=O)C2OC2C1O)c1ccccc1O (stereo not drawn) [DHMEQ, 5,6-epoxy-4-hydroxy-3-salicyloylamino-2-cyclohexenone]
p65 subunit of NF-κB
  nuclear translocation of p65: inhibited
[1]
  proliferation of MM cells from patients (MTT): proliferation was suppressed
[2]
  apoptosis (nuclear fragmentation, Hoechst staining): apoptosis was induced
[3]
  cell proliferation, concentration dependence (MTT): suppressed in proportion to the DHMEQ concentrations
  cell proliferation, time course (MTT): suppressed in proportion to the DHMEQ treatment time
[4]
  proliferation of tumor cells (tumor volume): significantly suppresses
[5]; 10 μg/ml, 12, 24, 48, 72 hours, listed as DHM2EQ
  cell proliferation, time course (MTT): hardly inhibited even after time had elapsed
[5]; 2, 5, 10 μg/ml, 72 hours
  cell proliferation, concentration dependence (MTT): hardly inhibited
NF-κB
  luciferase activity suppressed to (NF-κB transcriptional activity): about 50%
